Experimental data taken from patent US6706664B1, “Benzoxazole compounds, process for the preparation thereof and herbicides” (UBE Industries, Ltd., priority 1999, dated 2004).

Columns and labels:
Parameters in all cases: key: 0: normal development; 1: Less damaged; 2: Slightly damaged; 3: Moderately damaged; 4: Severely damaged; 5: All killed
young rice plant = experiment: Herbicidal test for paddy field; assay type: in vivo; conditions: paddy field pot, 500 g/ha dropwise at 1.5 leaf stage of barnyardgrass, 3 weeks, rank vs non-treated
Outline: (§1)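 Scores ran from 0 (normal development) to 5 (all killed) against untreated pots, judged after 3 weeks in a glasshouse averaging 25° C. Compound, as wettable powder diluted in water with 0.05% surfactant, was applied dropwise into 3 cm-deep paddy water at 500 g/ha. Application was at the 1.5-leaf stage of barnyardgrass.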

barnyardgrass [1] = experiment: Herbicidal test for paddy field; assay type: in vivo, Echinochloa crusgalli; conditions: paddy field pot, 500 g/ha dropwise at 1.5 leaf stage of barnyardgrass, 3 weeks, rank vs non-treated
Outline: as §1

bulrush = experiment: Herbicidal test for paddy field; assay type: in vivo, Scrips juncoides; conditions: paddy field pot, 500 g/ha dropwise at 1.5 leaf stage of barnyardgrass, 3 weeks, rank vs non-treated
Outline: as §1

flat sedge = experiment: Herbicidal test for paddy field; assay type: in vivo, Cyperus serotinus; conditions: paddy field pot, 500 g/ha dropwise at 1.5 leaf stage of barnyardgrass, 3 weeks, rank vs non-treated
Method: Wagner pots, each having an area of 1/5000 are, were packed with Ube soil (alluvial soil) and planted with seeds or tubers of young rice plant, barnyardgrass, bulrush, flat sedge and monochoria. Then, the pots were filled with water to a depth of 3 cm.
Each wettable powder of the desired compounds (I) shown in Table 1 prepared in accordance with Example 2 was diluted with water containing a surfactant (0.05%) and subjected to dropwise addition treatment by using pipet so that an effective concentration of the compound (I) in each herbicide became 500 g/ha at 1.5 leaf stage of barnyardgrass.
These plants were controlled in a glass house at an average temperature of 25° C. for 3 weeks, and then herbicidal effects thereof were investigated.
The herbicidal effects are evaluated according to the following 6 ranks as compared with non-treated district.
(0: normal development, 1: Less damaged, 2: Slightly damaged, 3: Moderately damaged, 4: Severely damaged, 5: All killed).

monochoria = experiment: Herbicidal test for paddy field; assay type: in vivo, Monochoria vaginalis; conditions: paddy field pot, 500 g/ha dropwise at 1.5 leaf stage of barnyardgrass, 3 weeks, rank vs non-treated
Outline: as §1

corn = experiment: Soil treatment test for upland field; assay type: in vivo; conditions: 500 g/ha, glass house 25° C., 3 weeks
Outline: (§2)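 Visual 0–5 damage rating recorded 3 weeks after a pre-emergence soil spray of 500 g/ha on seeded Ube alluvial soil, with plants held in a glasshouse near 25° C.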

solgum = experiment: Soil treatment test for upland field; assay type: in vivo; conditions: 500 g/ha, glass house 25° C., 3 weeks
Outline: as §2

soybean = experiment: Soil treatment test for upland field; assay type: in vivo; conditions: 500 g/ha, glass house 25° C., 3 weeks
Outline: as §2

sugar beat = experiment: Soil treatment test for upland field; assay type: in vivo; conditions: 500 g/ha, glass house 25° C., 3 weeks
Outline: as §2

wheat = experiment: Soil treatment test for upland field; assay type: in vivo; conditions: 500 g/ha, glass house 25° C., 3 weeks
Outline: as §2

Large crabgrass = experiment: Soil treatment test for upland field; assay type: in vivo, Digitaria adscendens; conditions: 500 g/ha, glass house 25° C., 3 weeks
Outline: as §2

barnyardgrass [2] = experiment: Soil treatment test for upland field; assay type: in vivo, Echinochloa crusgalli; conditions: 500 g/ha, glass house 25° C., 3 weeks
Outline: as §2

green foxtail = experiment: Soil treatment test for upland field; assay type: in vivo, Setaria viridis; conditions: 500 g/ha, glass house 25° C., 3 weeks
Outline: as §2

blackgrass = experiment: Soil treatment test for upland field; assay type: in vivo, Alopecurus aegualis; conditions: 500 g/ha, glass house 25° C., 3 weeks
Outline: as §2

annual bluegrass = experiment: Soil treatment test for upland field; assay type: in vivo, Poa annua; conditions: 500 g/ha, glass house 25° C., 3 weeks
Outline: as §2

common lambsquartes = experiment: Soil treatment test for upland field; assay type: in vivo, Chenopodium album; conditions: 500 g/ha, glass house 25° C., 3 weeks
Outline: as §2

livid amaranth = experiment: Soil treatment test for upland field; assay type: in vivo, Amaranthus lividus; conditions: 500 g/ha, glass house 25° C., 3 weeks
Outline: as §2

velvetleaf = experiment: Soil treatment test for upland field; assay type: in vivo, Abutilon theophrasti; conditions: 500 g/ha, glass house 25° C., 3 weeks
Outline: as §2

cotton = experiment: Soil treatment test for upland field; assay type: in vivo; conditions: 500 g/ha, glass house 25° C., 3 weeks
Outline: as §2

SMILES	Effect Young rice plant (young rice plant)	Effect Barnyardgrass (barnyardgrass [1])	Effect Bulrush (bulrush)	Effect Flat sedge (flat sedge)	Effect Monochoria (monochoria)	Effects Corn (corn)	Effects Solgum (solgum)	Effects Soybean (soybean)	Effects Sugar beat (sugar beat)	Effects Wheat (wheat)	Effects Large crabgrass (Large crabgrass)	Effects Barnyardgrass (barnyardgrass [2])	Effects Green foxtail (green foxtail)	Effects Blackgrass (blackgrass)	Effects Annual bluegrass (annual bluegrass)	Effects Common lambsquarters (common lambsquartes)	Effects Livid amaranth (livid amaranth)	Effects Velvetleaf (velvetleaf)	Effects Cotton (cotton)
CCC(Oc1cccc(OC(F)(F)F)c1)c1nc2cc(C#N)ccc2o1 (centres unmarked) [Compound 396]	2	2	5	5	5	2	3	2	5	2	5	5	5	5	5	5	5	5	
CCCC(Oc1cccc(C#N)c1)c1nc2cc(C#N)ccc2o1 (centres unmarked) [Compound 393]	0	4	5	5	5														
CCCC(Oc1ccc(F)c(C(F)(F)F)c1)c1nc2cc(F)c(F)cc2o1 (centres unmarked) [Compound 286]	3	4	5	3	5														
CC(Oc1cccc(C(F)(F)F)c1)c1nc2cc(Cl)ccc2o1 (centres unmarked) [Compound 138]	0	2	2	3	3	0	0	0		0	4	1	2	5	3	3	5		0
CCC(Oc1ccc(F)c(C(F)(F)F)c1)c1nc2cc(C#N)ccc2o1 (centres unmarked) [Compound 189]	2	5	5	5	5														
CCCC(Oc1ccc(F)c(C(F)(F)F)c1)c1nc2cc(C#N)c(F)cc2o1 (centres unmarked) [Compound 348]	2	4	4	4	5														
CCC(Oc1ccc(F)c(C(F)(F)F)c1)c1nc2cc(C#N)c(F)cc2o1 (centres unmarked) [Compound 346]	2	5	5	5	5														
CCC(Oc1cccc(C#N)c1)c1nc2cc(C#N)ccc2o1 (centres unmarked) [Compound 392]	0	5	5	5	5	1	5	0	2	0	5	2	5		4	3	5		0
